# PubChem BioAssay AID1259407 (Chemical Carcinogenesis Research Information System (CCRIS), 2018)
# Active and inactive are the calls of the source. How the calls were made is not given here.
# System: CCRIS mutagenicity, Ames/micronucleus/aberration tests
# Assay: CCRIS mutagenicity studies
# [1] = Test System: AMES SALMONELLA TYPHIMURIUM, Strain/Indicator: TA98, Metabolic Activation: NONE, Method: PREINCUBATION
# [2] = Test System: AMES SALMONELLA TYPHIMURIUM, Strain/Indicator: TA100, Metabolic Activation: NONE, Method: PREINCUBATION
# [3] = Test System: AMES SALMONELLA TYPHIMURIUM, Strain/Indicator: TA98, Metabolic Activation: NONE, Method: STANDARD PLATE
# [4] = Test System: AMES SALMONELLA TYPHIMURIUM, Strain/Indicator: TA98, Metabolic Activation: RAT, LIVER, S-9, AROCLOR 1254, Method: STANDARD PLATE
# [5] = Test System: AMES SALMONELLA TYPHIMURIUM, Strain/Indicator: TA100, Metabolic Activation: NONE, Method: STANDARD PLATE
# [6] = Test System: AMES SALMONELLA TYPHIMURIUM, Strain/Indicator: TA100, Metabolic Activation: RAT, LIVER, S-9, AROCLOR 1254, Method: STANDARD PLATE
# [7] = Test System: AMES SALMONELLA TYPHIMURIUM, Strain/Indicator: TA1535, Metabolic Activation: NONE, Method: STANDARD PLATE
# [8] = Test System: AMES SALMONELLA TYPHIMURIUM, Strain/Indicator: TA1535, Metabolic Activation: RAT, LIVER, S-9, AROCLOR 1254, Method: STANDARD PLATE
# [9] = Test System: AMES SALMONELLA TYPHIMURIUM, Strain/Indicator: TA1537, Metabolic Activation: NONE, Method: STANDARD PLATE
# [10] = Test System: AMES SALMONELLA TYPHIMURIUM, Strain/Indicator: TA1537, Metabolic Activation: RAT, LIVER, S-9, AROCLOR 1254, Method: STANDARD PLATE
# [11] = Test System: AMES SALMONELLA TYPHIMURIUM, Strain/Indicator: TA1538, Metabolic Activation: NONE, Method: STANDARD PLATE
# [12] = Test System: AMES SALMONELLA TYPHIMURIUM, Strain/Indicator: TA1538, Metabolic Activation: RAT, LIVER, S-9, AROCLOR 1254, Method: STANDARD PLATE
compound,measurement,setting,value
CCCCC(CC)COCCCN (configuration not stated),mutagenic call,"Test System: AMES SALMONELLA TYPHIMURIUM, Strain/Indicator: TA97, Metabolic Activation: HAMSTER, LIVER, S-9, AROCLOR 1254 (10%), Method: PREINCUBATION",inactive; negative
same,mutagenic call,"Test System: AMES SALMONELLA TYPHIMURIUM, Strain/Indicator: TA97, Metabolic Activation: HAMSTER, LIVER, S-9, AROCLOR 1254 (30%), Method: PREINCUBATION",inactive; negative
same,mutagenic call,"Test System: AMES SALMONELLA TYPHIMURIUM, Strain/Indicator: TA97, Metabolic Activation: NONE, Method: PREINCUBATION",inactive; negative
same,mutagenic call,"Test System: AMES SALMONELLA TYPHIMURIUM, Strain/Indicator: TA97, Metabolic Activation: RAT, LIVER, S-9, AROCLOR 1254 (10%), Method: PREINCUBATION",inactive; negative
same,mutagenic call,"Test System: AMES SALMONELLA TYPHIMURIUM, Strain/Indicator: TA97, Metabolic Activation: RAT, LIVER, S-9, AROCLOR 1254 (30%), Method: PREINCUBATION",inactive; negative
same,mutagenic call,"Test System: AMES SALMONELLA TYPHIMURIUM, Strain/Indicator: TA98, Metabolic Activation: HAMSTER, LIVER, S-9, AROCLOR 1254 (10%), Method: PREINCUBATION",inactive; negative
same,mutagenic call,"Test System: AMES SALMONELLA TYPHIMURIUM, Strain/Indicator: TA98, Metabolic Activation: HAMSTER, LIVER, S-9, AROCLOR 1254 (30%), Method: PREINCUBATION",inactive; negative
same,mutagenic call,[1],inactive; negative
same,mutagenic call,"Test System: AMES SALMONELLA TYPHIMURIUM, Strain/Indicator: TA98, Metabolic Activation: RAT, LIVER, S-9, AROCLOR 1254 (10%), Method: PREINCUBATION",inactive; negative
same,mutagenic call,"Test System: AMES SALMONELLA TYPHIMURIUM, Strain/Indicator: TA98, Metabolic Activation: RAT, LIVER, S-9, AROCLOR 1254 (30%), Method: PREINCUBATION",inactive; negative
same,mutagenic call,"Test System: AMES SALMONELLA TYPHIMURIUM, Strain/Indicator: TA100, Metabolic Activation: HAMSTER, LIVER, S-9, AROCLOR 1254 (10%), Method: PREINCUBATION",inactive; negative
same,mutagenic call,"Test System: AMES SALMONELLA TYPHIMURIUM, Strain/Indicator: TA100, Metabolic Activation: HAMSTER, LIVER, S-9, AROCLOR 1254 (30%), Method: PREINCUBATION",inactive; negative
same,mutagenic call,[2],inactive; negative
same,mutagenic call,"Test System: AMES SALMONELLA TYPHIMURIUM, Strain/Indicator: TA100, Metabolic Activation: RAT, LIVER, S-9, AROCLOR 1254 (10%), Method: PREINCUBATION",inactive; negative
same,mutagenic call,"Test System: AMES SALMONELLA TYPHIMURIUM, Strain/Indicator: TA100, Metabolic Activation: RAT, LIVER, S-9, AROCLOR 1254 (30%), Method: PREINCUBATION",inactive; negative
same,mutagenic call,"Test System: AMES SALMONELLA TYPHIMURIUM, Strain/Indicator: TA1535, Metabolic Activation: HAMSTER, LIVER, S-9, AROCLOR 1254 (10%), Method: PREINCUBATION",inactive; negative
same,mutagenic call,"Test System: AMES SALMONELLA TYPHIMURIUM, Strain/Indicator: TA1535, Metabolic Activation: HAMSTER, LIVER, S-9, AROCLOR 1254 (30%), Method: PREINCUBATION",inactive; negative
same,mutagenic call,"Test System: AMES SALMONELLA TYPHIMURIUM, Strain/Indicator: TA1535, Metabolic Activation: NONE, Method: PREINCUBATION",inactive; negative
same,mutagenic call,"Test System: AMES SALMONELLA TYPHIMURIUM, Strain/Indicator: TA1535, Metabolic Activation: RAT, LIVER, S-9, AROCLOR 1254 (10%), Method: PREINCUBATION",inactive; negative
same,mutagenic call,"Test System: AMES SALMONELLA TYPHIMURIUM, Strain/Indicator: TA1535, Metabolic Activation: RAT, LIVER, S-9, AROCLOR 1254 (30%), Method: PREINCUBATION",inactive; negative
O=[N+]([O-])c1cccc2c1-c1cccc3cccc-2c13,mutagenic call,[3],active; positive
O=[N+]([O-])C1=Cc2ccc3ccc4cccc5cc1c2c3c45,mutagenic call,[3],active; positive
same,mutagenic call,[4],active; positive
same,mutagenic call,[5],active; positive
same,mutagenic call,[6],inactive; negative
same,mutagenic call,[7],inactive; negative
same,mutagenic call,[8],inactive; negative
same,mutagenic call,[9],active; positive
same,mutagenic call,[10],active; positive
same,mutagenic call,[11],active; positive
same,mutagenic call,[12],active; positive
Cc1cccs1,mutagenic call,[1],inactive; negative
same,mutagenic call,"Test System: AMES SALMONELLA TYPHIMURIUM, Strain/Indicator: TA98, Metabolic Activation: RAT, LIVER, S-9, AROCLOR 1254, Method: PREINCUBATION",inactive; negative
same,mutagenic call,[2],inactive; negative
same,mutagenic call,"Test System: AMES SALMONELLA TYPHIMURIUM, Strain/Indicator: TA100, Metabolic Activation: RAT, LIVER, S-9, AROCLOR 1254, Method: PREINCUBATION",inactive; negative
same,mutagenic call,"Test System: AMES SALMONELLA TYPHIMURIUM, Strain/Indicator: TA102, Metabolic Activation: NONE, Method: PREINCUBATION",inactive; negative
same,mutagenic call,"Test System: AMES SALMONELLA TYPHIMURIUM, Strain/Indicator: TA102, Metabolic Activation: RAT, LIVER, S-9, AROCLOR 1254, Method: PREINCUBATION",inactive; negative
O=S(=O)(c1cc(Cl)cc(Cl)c1O)c1cc(Cl)cc(Cl)c1O,mutagenic call,"Test System: AMES SALMONELLA TYPHIMURIUM, Strain/Indicator: TA97, Metabolic Activation: NONE, Method: STANDARD PLATE",inactive; negative
same,mutagenic call,"Test System: AMES SALMONELLA TYPHIMURIUM, Strain/Indicator: TA97, Metabolic Activation: RAT, LIVER, S-9, AROCLOR 1254, Method: STANDARD PLATE",inactive; negative
same,mutagenic call,[3],inactive; negative
same,mutagenic call,[4],inactive; negative
same,mutagenic call,[5],inactive; negative
same,mutagenic call,[6],inactive; negative
same,mutagenic call,"Test System: AMES SALMONELLA TYPHIMURIUM, Strain/Indicator: TA102, Metabolic Activation: NONE, Method: STANDARD PLATE",inactive; negative
same,mutagenic call,"Test System: AMES SALMONELLA TYPHIMURIUM, Strain/Indicator: TA102, Metabolic Activation: RAT, LIVER, S-9, AROCLOR 1254, Method: STANDARD PLATE",inactive; negative
c1ccc2c(c1)CCCC2,mutagenic call,"Test System: AMES SALMONELLA TYPHIMURIUM, Strain/Indicator: TA98, Metabolic Activation: HAMSTER, LIVER, S-9, AROCLOR 1254, Method: STANDARD PLATE",inactive; negative
same,mutagenic call,[3],inactive; negative
same,mutagenic call,[4],inactive; negative
same,mutagenic call,"Test System: AMES SALMONELLA TYPHIMURIUM, Strain/Indicator: TA100, Metabolic Activation: HAMSTER, LIVER, S-9, AROCLOR 1254, Method: STANDARD PLATE",inactive; negative
same,mutagenic call,[5],inactive; negative
same,mutagenic call,[6],inactive; negative
same,mutagenic call,"Test System: AMES SALMONELLA TYPHIMURIUM, Strain/Indicator: TA1535, Metabolic Activation: HAMSTER, LIVER, S-9, AROCLOR 1254, Method: STANDARD PLATE",inactive; negative
same,mutagenic call,[7],inactive; negative
same,mutagenic call,[8],inactive; negative
same,mutagenic call,"Test System: AMES SALMONELLA TYPHIMURIUM, Strain/Indicator: TA1537, Metabolic Activation: HAMSTER, LIVER, S-9, AROCLOR 1254, Method: STANDARD PLATE",inactive; negative
same,mutagenic call,[9],inactive; negative
same,mutagenic call,[10],inactive; negative
same,mutagenic call,"Test System: AMES SALMONELLA TYPHIMURIUM, Strain/Indicator: TA1538, Metabolic Activation: HAMSTER, LIVER, S-9, AROCLOR 1254, Method: STANDARD PLATE",inactive; negative
same,mutagenic call,[11],inactive; negative
same,mutagenic call,[12],inactive; negative
same,mutagenic call,"Test System: MOUSE LYMPHOMA, Strain/Indicator: L5178Y (TK+/TK-), Metabolic Activation: RAT, LIVER, S-9, AROCLOR 1254, Method: SUSPENSION/PLATE",active; positive. reevaluation of results: equivocal
Cc1ccc2c3c1ccc1cccc(c13)C2,mutagenic call,[6],active; positive
